Results on 17 compounds are retold here after patent US9708336B2, “Metallo-beta-lactamase inhibitors” (priority 2014, dated 2017).

Read-outs that look alike come from different tables or passages of the source.

The target of one test is VIM-1 (Pseudomonas aeruginosa (strain ATCC 15692 / DSM 22644 / CIP 104116 / JCM 14847 / LMG 12228 / 1C / PRS 101 / PAO1), UniProt A0A0F7KYQ8). The test can be described thus: Enzyme activity: determination of IC50, fluorescence assay with CCF2-FA substrate (VIM-1). The format is biochemical. As to conditions: CCF2-FA substrate.
The target in a further test is NDM-1 (Klebsiella pneumoniae, UniProt C7C422). The test can be described thus: biochemical. The format is biochemical. As to conditions: NDM-1 enzyme, CCF2-FA substrate; read-out: NDM-1 IC50.
Chain of NDM-1 (C7C422 whole entry, looked up, species assumed): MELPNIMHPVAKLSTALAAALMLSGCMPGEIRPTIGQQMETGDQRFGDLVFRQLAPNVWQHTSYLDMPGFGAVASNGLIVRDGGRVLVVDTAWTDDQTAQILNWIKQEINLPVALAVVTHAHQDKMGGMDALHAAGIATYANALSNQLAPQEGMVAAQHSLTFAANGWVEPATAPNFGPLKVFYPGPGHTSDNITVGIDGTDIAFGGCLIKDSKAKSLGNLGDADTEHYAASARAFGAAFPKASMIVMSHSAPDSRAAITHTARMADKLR
Another test concerns the target IMP-1 (Serratia marcescens, UniProt P52699). The test can be described thus: biochemical. The class given is biochemical. As to conditions: IMP-1 enzyme, CCF2-FA substrate; read-out: IMP-1 IC50.
Test [1] relates to Escherichia coli expressing NDM-1 (CLB30016). In words: Antibiotic potentiation activity: synergistic concentration (MITC95) with imipenem, OD600 growth. The format is cell-based. As to conditions: (CLB30016, NDM-1), 95% growth inhibition. The method, boiled down:
(§1)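 In 1.1× CAMHB, clinical isolates from overnight plates were challenged with test compound alongside imipenem at an assay concentration of 4 μg/ml, sometimes 1 μg/ml. Plates sat covered at 35 °C for 22–24 h prior to spectrophotometric reading.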

In test [2] the test system is Serratia marcescens expressing IMP-1 (CL5741). Described as above. The class given is cell-based. The note with it: Serratia marcescens CL5741 (IMP-1), 95% growth inhibition. The method, boiled down: as §1
The test system of test [3] is Klebsiella pneumoniae expressing VIM-1 (IHMA599644). The test is described as above. The format is cell-based. As to conditions: Klebsiella pneumoniae IHMA599644 (VIM-1), 95% growth inhibition. An outline of the steps: as §1
The mark [4] stands for this setting: VIM-1 enzyme, read-out: VIM-1 IC50.

Chain of IMP-1 (P52699 whole entry, looked up): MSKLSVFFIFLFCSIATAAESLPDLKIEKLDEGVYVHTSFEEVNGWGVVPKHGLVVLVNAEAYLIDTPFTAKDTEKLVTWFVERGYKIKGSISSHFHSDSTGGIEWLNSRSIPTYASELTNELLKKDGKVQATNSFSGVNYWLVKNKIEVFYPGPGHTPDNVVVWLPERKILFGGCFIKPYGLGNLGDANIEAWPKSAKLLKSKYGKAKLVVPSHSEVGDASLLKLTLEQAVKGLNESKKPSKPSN

Take `NS(=O)(=O)c1c(C(F)(F)F)ccc(-c2ccc3c(c2)CNC3)c1-c1nnn[nH]1` [Example 715, 3-(2,3-dihydro-1H-isoindol-5-yl)-2-(1H-tetrazol-5-yl)-6-(trifluoromethyl)benzenesulfon-amide]: the figures for the 50% inhibitory concentration (IC50) on VIM-1 (setting [4]), at NDM-1 and at IMP-1 were 0.729 nM, 25.3 nM and 27.4 nM, respectively. Besides, the “Escherichia coli MITC95” value in test [1] was 6.25 µM. For the same compound, the “Serratia marcescens MITC95” value in test [2] is 12.5 µM. Further, in test [3], the “Klebsiella pneumoniae MITC95” value is 3.125 µM.
For the compound `NS(=O)(=O)c1c(C(F)(F)F)ccc(-c2ccc(C3CCCN3)cc2)c1-c1nnn[nH]1` (stereo not drawn) [Example 716, 4′-pyrrolidin-2-yl-2-(1H-tetrazol-5-yl)-4-(trifluoromethyl)biphenyl-3-sulfonamide], the IC50 – broadly, the concentration at which inhibition is half-maximal – is 2.79 nM against VIM-1 (VIM-1 IC50, VIM-1 enzyme); 8.07 nM on NDM-1; 5.43 nM on IMP-1. Besides, in test [1], the “Escherichia coli MITC95” value turned out to be 6.25 µM. In addition, the “Serratia marcescens MITC95” value in test [2] amounted to 3.125 µM. Moreover, the “Klebsiella pneumoniae MITC95” value in test [3] came out at 25 µM.
Consider `NS(=O)(=O)c1c(C(F)(F)F)ccc(-c2ccc(N3CCNCC3)cc2)c1-c1nnn[nH]1` [Example 717, 4′-piperazin-1-yl-2-(1H-tetrazol-5-yl)-4-(trifluoromethyl)biphenyl-3-sulfonamide], for which the IC50 on VIM-1 (setting [4]) was found to be 0.598 nM; on NDM-1 it was 1.64 nM; at IMP-1 it was 2.62 nM. The “Escherichia coli MITC95” value in test [1] was determined as 1.563 µM. The “Serratia marcescens MITC95” value in test [2] was found to be 3.125 µM. The “Klebsiella pneumoniae MITC95” value in test [3] is 3.125 µM.
Regarding `NS(=O)(=O)c1c(C(F)(F)F)ccc(-c2ccc(CN3CCNCC3)cc2)c1-c1nnn[nH]1` [Example 718, 4′-(piperazin-1-ylmethyl)-2-(1H-tetrazol-5-yl)-4-(trifluoromethyl)biphenyl-3-sulfonamide], the IC50 worked out at 1.73 nM on VIM-1 (setting [4]), 1.51 nM at NDM-1 and 2.4 nM at IMP-1. Further, the “Escherichia coli MITC95” value in test [1] was 12.5 µM. The “Serratia marcescens MITC95” value in test [2] worked out at 6.25 µM. The “Klebsiella pneumoniae MITC95” value in test [3] amounted to 25 µM.
Turning to `NS(=O)(=O)c1c(C(F)(F)F)ccc(-c2ccc(OC3CNC3)cc2)c1-c1nnn[nH]1` [Example 719, 4′-(azetidin-3-yloxy)-2-(1H-tetrazol-5-yl)-4-(trifluoromethyl)biphenyl-3-sulfonamide], the IC50 against VIM-1 (VIM-1 IC50, VIM-1 enzyme) came out at 0.553 nM; on NDM-1, 3.04 nM; on IMP-1, 3.68 nM. For the same compound, in test [1], the “Escherichia coli MITC95” value stood at 3.125 µM. Moreover, the “Serratia marcescens MITC95” value in test [2] was found to be 3.125 µM. For the same compound, in test [3], the “Klebsiella pneumoniae MITC95” value was found to be 3.125 µM.
On to `NS(=O)(=O)c1c(C(F)(F)F)ccc(-c2ccc3c(c2)CNCC3)c1-c1nnn[nH]1` [Example 720, 3-(1,2,3,4-tetrahydroisoquinolin-7-yl)-2-(1H-tetrazol-5-yl)-6-(trifluoromethyl)benzenesulfon-amide], for which the concentration for half-maximal inhibition (IC50) on VIM-1 (setting [4]) came out at 1.04 nM; on NDM-1, 3.04 nM; at IMP-1, 16.1 nM. The “Escherichia coli MITC95” value in test [1] was 6.25 µM. In addition, in test [2], the “Serratia marcescens MITC95” value was determined as 12.5 µM. The “Klebsiella pneumoniae MITC95” value in test [3] came to 3.125 µM.
As for `NS(=O)(=O)c1c(C(F)(F)F)ccc(-c2ccc3c(c2)CCNC3)c1-c1nnn[nH]1` [Example 721, 3-(1,2,3,4-tetrahydroisoquinolin-6-yl)-2-(1H-tetrazol-5-yl)-6-(trifluoromethyl)benzenesulfon-amide], the values for the concentration for half-maximal inhibition (IC50) at VIM-1 (setting [4]), at NDM-1 and at IMP-1 were 0.807 nM, 3.02 nM and 9.18 nM, respectively. Besides, the “Escherichia coli MITC95” value in test [1] is 6.25 µM. The “Serratia marcescens MITC95” value in test [2] worked out at 6.25 µM. In addition, the “Klebsiella pneumoniae MITC95” value in test [3] is 1.563 µM.
As for `NS(=O)(=O)c1c(C(F)(F)F)ccc(-c2cccc(C3CCNC3)c2)c1-c1nnn[nH]1` (stereo not drawn) [Example 722, 3′-pyrrolidin-3-yl-2-(1H-tetrazol-5-yl)-4-(trifluoromethyl)biphenyl-3-sulfonamide], the IC50 on VIM-1 (setting [4]) was 1.46 nM; on NDM-1 it was 20.8 nM; on IMP-1 it was 21.7 nM. Besides, the “Escherichia coli MITC95” value in test [1] is 12.5 µM. Besides, the “Serratia marcescens MITC95” value in test [2] was determined as 25 µM. Also, the “Klebsiella pneumoniae MITC95” value in test [3] came to 6.25 µM.
For `NS(=O)(=O)c1c(C(F)(F)F)ccc(-c2cccc(N3CCNCC3)c2)c1-c1nnn[nH]1` [Example 723, 3′-piperazin-1-yl-2-(1H-tetrazol-5-yl)-4-(trifluoromethyl)biphenyl-3-sulfonamide], the IC50 on VIM-1 (setting [4]) worked out at 1.26 nM; on NDM-1, 7.78 nM; at IMP-1 it was 17.2 nM. Further, in test [1], the “Escherichia coli MITC95” value is 6.25 µM. Further, the “Serratia marcescens MITC95” value in test [2] was 25 µM. The “Klebsiella pneumoniae MITC95” value in test [3] came out at 12.5 µM.
For the compound `NS(=O)(=O)c1c(C(F)(F)F)ccc(-c2cccc3c2OCCN3)c1-c1nnn[nH]1` [Example 724, 3-(3,4-dihydro-2H-1,4-benzoxazin-8-yl)-2-(1H-tetrazol-5-yl)-6-(trifluoromethyl)benzenesulfon-amide], the figures for the IC50 at VIM-1 (setting [4]), at NDM-1 and at IMP-1 were 0.862 nM, 1.15 nM and 2.44 nM, respectively. Besides, the “Escherichia coli MITC95” value in test [1] was found to be 6.25 µM. Moreover, in test [2], the “Serratia marcescens MITC95” value worked out at 6.25 µM. For the same compound, the “Klebsiella pneumoniae MITC95” value in test [3] turned out to be 12.5 µM.
For the compound `CC(CO)(CO)c1ccc(-c2ccc(C(F)(F)F)c(S(N)(=O)=O)c2-c2nnn[nH]2)cc1` [Example 725, 4′-[2-hydroxy-1-(hydroxymethyl)-1-methylethyl]-2-(1H-tetrazol-5-yl)-4-(trifluoromethyl)biphenyl-3-sulfonamide], the IC50 was determined as 1.27 nM at VIM-1 (setting [4]), 0.767 nM at NDM-1 and 0.92 nM at IMP-1. In test [1], the “Escherichia coli MITC95” value is 12.5 µM. Moreover, the “Serratia marcescens MITC95” value in test [2] came out at 6.25 µM. In test [3], the “Klebsiella pneumoniae MITC95” value is 25 µM.
Regarding `CNC1CCc2c(-c3ccc(C(F)(F)F)c(S(N)(=O)=O)c3-c3nnn[nH]3)cccc21` (stereo not drawn) [Example 726, 3-[1-(methylamino)-2,3-dihydro-1H-inden-4-yl]-2-(1H-tetrazol-5-yl)-6-(trifluoromethyl)benzenesulfon-amide], the values for the half-inhibitory concentration (IC50) on VIM-1 (setting [4]), on NDM-1 and at IMP-1 were 1.21 nM, 26.8 nM and 58.9 nM, respectively. Moreover, the “Escherichia coli MITC95” value in test [1] came out at 12.5 µM. The “Serratia marcescens MITC95” value in test [2] stood at 25 µM. The “Klebsiella pneumoniae MITC95” value in test [3] amounted to 3.125 µM.
Regarding `N[C@@H]1CCCN(c2ccc(-c3ccc(C(F)(F)F)c(S(N)(=O)=O)c3-c3nnn[nH]3)cc2)C1` [Example 727, 4′-[(3R)-3-aminopiperidin-1-yl]-2-(1H-tetrazol-5-yl)-4-(trifluoromethyl)biphenyl-3-sulfonamide], the values for the IC50 at VIM-1 (setting [4]), at NDM-1 and at IMP-1 were 0.914 nM, 2.13 nM and 1.97 nM, respectively. In addition, in test [1], the “Escherichia coli MITC95” value is 3.125 µM. The “Serratia marcescens MITC95” value in test [2] was 3.125 µM. Besides, the “Klebsiella pneumoniae MITC95” value in test [3] was 25 µM.
`NC1(c2ccc(-c3ccc(C(F)(F)F)c(S(N)(=O)=O)c3-c3nnn[nH]3)cc2)CC(O)C1` (stereo not drawn) [Example 728, 4′-(1-amino-3-hydroxycyclobutyl)-2-(1H-tetrazol-5-yl)-4-(trifluoromethyl)biphenyl-3-sulfonamide]: the IC50 was found to be 4 nM at VIM-1 (VIM-1 IC50, VIM-1 enzyme); 2.58 nM on NDM-1; 4.16 nM at IMP-1. The “Escherichia coli MITC95” value in test [1] amounted to 3.125 µM. In test [2], the “Serratia marcescens MITC95” value stood at 6.25 µM. Also, in test [3], the “Klebsiella pneumoniae MITC95” value was found to be 25 µM.
With `NC1(c2ccc(-c3ccc(C(F)(F)F)c(S(N)(=O)=O)c3-c3nnn[nH]3)cc2)CCCC1` [Example 729, 4′-(1-aminocyclopentyl)-2-(1H-tetrazol-5-yl)-4-(trifluoromethyl)biphenyl-3-sulfonamide], the results for the IC50 on VIM-1 (setting [4]), at NDM-1 and on IMP-1 were 7.37 nM, 4.85 nM and 6.97 nM, respectively. Further, the “Escherichia coli MITC95” value in test [1] worked out at 6.25 µM. Moreover, in test [2], the “Serratia marcescens MITC95” value worked out at 6.25 µM. The “Klebsiella pneumoniae MITC95” value in test [3] came to 25 µM.
As to `NC1(c2ccc(-c3ccc(C(F)(F)F)c(S(N)(=O)=O)c3-c3nnn[nH]3)cc2)CCOC1` (stereo not drawn) [Example 730, 4′-(3-aminotetrahydrofuran-3-yl)-2-(1H-tetrazol-5-yl)-4-(trifluoromethyl)biphenyl-3-sulfonamide], the 50% inhibitory concentration (IC50) at VIM-1 (setting [4]) is 6 nM; on NDM-1, 2.8 nM; on IMP-1, 3.57 nM. Besides, in test [1], the “Escherichia coli MITC95” value came to 3.125 µM. For the same compound, in test [2], the “Serratia marcescens MITC95” value was found to be 3.125 µM. In addition, the “Klebsiella pneumoniae MITC95” value in test [3] worked out at 50 µM.
On to `NC1CCCc2ccc(-c3ccc(C(F)(F)F)c(S(N)(=O)=O)c3-c3nnn[nH]3)cc21` (stereo not drawn) [Example 731, 3-(8-amino-5,6,7,8-tetrahydronaphthalen-2-yl)-2-(1H-tetrazol-5-yl)-6-(trifluoromethyl)benzenesulfon-amide], for which the IC50 against VIM-1 (VIM-1 IC50, VIM-1 enzyme) stood at 22.1 nM; at NDM-1 it was 61.3 nM; on IMP-1, 117 nM. The “Escherichia coli MITC95” value in test [1] was 25 µM. Moreover, the “Serratia marcescens MITC95” value in test [2] turned out to be 50 µM. Also, in test [3], the “Klebsiella pneumoniae MITC95” value came to 50 µM.
